“And” between values parts separate entries of the source, which are not always exact repeats. Identical values can stand only once. Like-named read-outs stand apart in the source and are kept apart here.
What was measured:
[1] = test system: HBV replicative plasmid pAAV-HBV1.2× in C57BL/6 mice; experiment: Hydrodynamic injection mouse model (pAAV-HBV1.2×, C57BL/6 mice); assay type: in vivo
[2] = test system: intracellular HBV DNA in HepG2.2.15 and HBV 1.2X adr transfected HepG2 cells; experiment: Southern blot analysis of intracellular HBV DNA; assay type: cell-based, Hepatitis B virus; settings: Fig. 4c
[3] = test system: HBsAg in HepG2 cells transfected with pHBV1.2×; experiment: Secreted HBsAg ELISA, HepG2 cells transfected with pHBV1.2×; assay type: cell-based, Hepatitis B virus
Description: (§1) Secreted HBsAg (f, i respectively) was quantified by ELISA.
(§2) An HBsAg ELISA kit (KA0286, Abnova) was used to quantify HBsAg protein. Briefly, culture media were incubated in individual wells of the capture plates for 2 h. After washing, horseradish peroxidase-labeled rabbit anti-HBV surface antibody was added, followed by incubation for an additional 2 h. The substrate solution was added for 15–60 min and absorbance at 450 nm was measured.

[4] = test system: BALB/c male mice; settings: mouse, in vivo, po
Description: Five mice were included in each group. Mortality was monitored daily, and bodyweight was measured every other day. On day 28, blood was taken from the orbital sinus, and white blood cells, red blood cells and platelets were counted. Blood urea nitrogen, creatinine, glucose, total bilirubin, total cholesterol, triglyceride, albumin, total protein, aspartate aminotransferase, alanine aminotransferase (ALT), sodium, potassium, and chloride were measured. Urinalysis was performed including urobilinogen, glucose, bilirubin, ketone, specific gravity, blood, pH, protein, nitrate, and leukocytes.
Supplementary Table 3. Mean numbers of blood cells, and parameters for kidney and liver
Data are expressed as means ± standard deviations.
Abbreviations: WBC, white blood cell, AST, aspartate transaminase; ALT, alanine transaminase; ALP,
alkaline phosphatase; BUN, blood urea nitrogen; Na, sodium; K, potassium; Cl. Chloride; S.G, specific

[5] = test system: HBV cccDNA in HepG2-NTCP cells; experiment: In vitro HBV infection model, HepG2-NTCP cells: intracellular cccDNA
[6] = test system: HBV cccDNA in Huh-7-NTCP cells; experiment: In vitro HBV infection model, Huh-7-NTCP cells: intracellular cccDNA
[7] = ref https://www.drugbank.ca/; cited from earlier work
[8] = test system: patients; settings: cited from earlier work
[9] = test system: HepG2 cells transfected with pHBV1.2×; settings: 0.1–10 μM, 6 days
[10] = target: HBV core protein Y118F mutant in Huh-7 cells (Hepatitis B virus genotype C, UniProt P0C6H6, Y118F); experiment: Intracellular HBV capsid assembly, Huh-7 cells transfected with pCDNA3-Core Y118F; assay type: cell-based
[11] = in vitro; assay type: cell-based, human; settings: human, Cell viability(%)
Description: (§3) Supplementary Fig. 11. Effect of FBS serum iron level on Huh-7, HepG2, and HepG2.2.15 cell
(§4) a Cells were maintained in medium supplemented with 2% FBS or 10% FBS for 1 day and treated with
(§5) After 6 days, cytotoxicity was measured. b Cells were treated with
(§6) the ± SD. *p < 0.05 by unpaired two-tailed Student’s t-test.

[12] = in vitro; settings: human, Cell viability(%)
[13] = target: T1, Cp149 (truncated HBV core protein) (Hepatitis B virus genotype D subtype ayw, UniProt P03146); experiment: biochemical
T1 construct: Cp149 (amino acids 1–149) is a truncated form of the HBV core protein; made in house; host or cells: Escherichia coli

[14] = test system: HBV rcDNA in HepG2-NTCP cells; experiment: In vitro HBV infection model, HepG2-NTCP cells: intracellular HBV rcDNA
[15] = in vitro; assay type: cell-based, human; settings: human, Cell viability(%); remark: listed apart in the source
Description: as §3, §4, §5, §6

[16] = test system: HepG2.2.15 cells; settings: 0.1–10 μM, 6 days
[17] = in vitro; settings: human, Cell viability(%); remark: listed apart in the source
[18] = test system: HBsAg in HepG2.2.15 cells; experiment: Secreted HBsAg ELISA, HepG2.2.15 cells; assay type: cell-based, Hepatitis B virus
Description: as §1, §2

[19] = 5 mg per kg oral daily, by day 5

## Cc1cc(C2CCCCC2)n(O)c(=O)c1 [Ciclopirox, 6-cyclohexyl-1-hydroxy-4-methyl-2(1 H)-pyridone]
[1]; [19]
  HBV core protein levels in the liver: reduced HBV core protein levels in the liver
  serum HBV DNA levels: significantly lowered serum HBV DNA levels
[1]; mouse, in vivo
  HBsAg, AVERAGE: 278.443 ng/mL and 288.165 ng/mL and 304.224 ng/mL and 310.116 ng/mL
[2]
  intracellular HBV DNA levels (Southern blot): reduced intracellular HBV DNA levels in a dose-dependent manner
[3]
  HBsAg production: no effect
[4]; 1 mg/kg/day
  Cl: 100.0 ± 1.0 mmol/L
[4]; 5 mg/kg/day
  Cl: 99.0 ± 1.0 mmol/L
[5]
  cccDNA levels: dropped markedly
[6]
  cccDNA levels: dropped markedly
[7]
  pKa value (acidic): 6.84
[8]; 80 mg per m^2 four times daily, oral
  Dose-limiting gastrointestinal toxicities: Dose-limiting gastrointestinal toxicities were observed
[8]; once daily >10 mg per m^2, oral
  anti-apoptotic gene expression in peripheral blood cells: suppressed anti-apoptotic gene expression in peripheral blood cells
[9]
  cytotoxicity: no significant cytotoxicity
[10]
  reduction in sensitivity of Y118F compared with the wild-type: approximately 4 fold
[11]; AVERAGE
  viability at 0.1 µM: 100%
  viability at 0.2 µM: 100%
  viability at 0.5 µM: 99.6%
  viability at 1 µM: 99.1%
  viability at 2 µM: 97.4%
  viability at 5 µM: 95.2%
  viability at 10 µM: 93.6%
[11]; individual samples
  viability at 0.1 µM: 99.9%
  viability at 0.2 µM: 99.6%
  viability at 0.5 µM: 99.4%
  viability at 1 µM: 98.9%
  viability at 2 µM: 97%
  viability at 5 µM: 93%
  viability at 10 µM: 93.5%
[12]; AVERAGE
  viability at 0.1 µM: 99.9%
  viability at 0.2 µM: 99.2%
  viability at 0.5 µM: 99.4%
  viability at 1 µM: 99.9%
  viability at 2 µM: 99.4%
  viability at 5 µM: 99.2%
  viability at 10 µM: 99.8%
[12]; individual samples
  viability at 0.1 µM: 98.9%
  viability at 0.2 µM: 95.7%
  viability at 0.5 µM: 98.9%
  viability at 1 µM: 99.9%
  viability at 2 µM: 99.6%
  viability at 5 µM: 97.6%
  viability at 10 µM: 99.9%
[13]
  IC50: 445 ± 17 nM
[14]
  intracellular relaxed circular DNA levels: dropped markedly
[15]; AVERAGE
  viability at 0.1 µM: 99.9%
  viability at 0.2 µM: 99.8%
  viability at 0.5 µM: 99.7%
  viability at 1 µM: 99.7%
  viability at 2 µM: 98%
  viability at 5 µM: 96.5%
  viability at 10 µM: 94.6%
[15]; individual samples
  viability at 0.1 µM: 98.5%
  viability at 0.2 µM: 98.3%
  viability at 0.5 µM: 98.2%
  viability at 1 µM: 96.6%
  viability at 2 µM: 95.4%
  viability at 5 µM: 91.5%
[16]
  cytotoxicity: no significant cytotoxicity
[17]; AVERAGE
  viability at 0.1 µM: 98.8%
  viability at 0.2 µM: 102%
  viability at 0.5 µM: 97.7%
  viability at 1 µM: 98.7%
  viability at 2 µM: 99.1%
[17]; individual samples
  viability at 0.1 µM: 98.8%
  viability at 0.2 µM: 102%
  viability at 0.5 µM: 97.6%
  viability at 1 µM: 98.6%
  viability at 2 µM: 99%
[18]
  HBsAg production: no effect

Source: PMC6522524 (Nature Communications, 2019)
